What is called IC50 is the concentration at which inhibition is half-maximal.

Consider 16 compounds from patent US9630929B2, “Benzenesulfonamide compounds and their use as therapeutic agents” (XENON PHARMACEUTICALS INC., priority 2011, dated 2017).

What all share (assay type): cell-based
The target of data set [1] is T1, NaV1.7 (Homo sapiens (Human), UniProt Q15858). The experiment in a line: NaV flux assay, inhibition of NaV1.7. The following applies: NaV flux data, included when EP data is not available.
T1 sequence (Q15858 other isoform, or with tags, fused parts or gaps): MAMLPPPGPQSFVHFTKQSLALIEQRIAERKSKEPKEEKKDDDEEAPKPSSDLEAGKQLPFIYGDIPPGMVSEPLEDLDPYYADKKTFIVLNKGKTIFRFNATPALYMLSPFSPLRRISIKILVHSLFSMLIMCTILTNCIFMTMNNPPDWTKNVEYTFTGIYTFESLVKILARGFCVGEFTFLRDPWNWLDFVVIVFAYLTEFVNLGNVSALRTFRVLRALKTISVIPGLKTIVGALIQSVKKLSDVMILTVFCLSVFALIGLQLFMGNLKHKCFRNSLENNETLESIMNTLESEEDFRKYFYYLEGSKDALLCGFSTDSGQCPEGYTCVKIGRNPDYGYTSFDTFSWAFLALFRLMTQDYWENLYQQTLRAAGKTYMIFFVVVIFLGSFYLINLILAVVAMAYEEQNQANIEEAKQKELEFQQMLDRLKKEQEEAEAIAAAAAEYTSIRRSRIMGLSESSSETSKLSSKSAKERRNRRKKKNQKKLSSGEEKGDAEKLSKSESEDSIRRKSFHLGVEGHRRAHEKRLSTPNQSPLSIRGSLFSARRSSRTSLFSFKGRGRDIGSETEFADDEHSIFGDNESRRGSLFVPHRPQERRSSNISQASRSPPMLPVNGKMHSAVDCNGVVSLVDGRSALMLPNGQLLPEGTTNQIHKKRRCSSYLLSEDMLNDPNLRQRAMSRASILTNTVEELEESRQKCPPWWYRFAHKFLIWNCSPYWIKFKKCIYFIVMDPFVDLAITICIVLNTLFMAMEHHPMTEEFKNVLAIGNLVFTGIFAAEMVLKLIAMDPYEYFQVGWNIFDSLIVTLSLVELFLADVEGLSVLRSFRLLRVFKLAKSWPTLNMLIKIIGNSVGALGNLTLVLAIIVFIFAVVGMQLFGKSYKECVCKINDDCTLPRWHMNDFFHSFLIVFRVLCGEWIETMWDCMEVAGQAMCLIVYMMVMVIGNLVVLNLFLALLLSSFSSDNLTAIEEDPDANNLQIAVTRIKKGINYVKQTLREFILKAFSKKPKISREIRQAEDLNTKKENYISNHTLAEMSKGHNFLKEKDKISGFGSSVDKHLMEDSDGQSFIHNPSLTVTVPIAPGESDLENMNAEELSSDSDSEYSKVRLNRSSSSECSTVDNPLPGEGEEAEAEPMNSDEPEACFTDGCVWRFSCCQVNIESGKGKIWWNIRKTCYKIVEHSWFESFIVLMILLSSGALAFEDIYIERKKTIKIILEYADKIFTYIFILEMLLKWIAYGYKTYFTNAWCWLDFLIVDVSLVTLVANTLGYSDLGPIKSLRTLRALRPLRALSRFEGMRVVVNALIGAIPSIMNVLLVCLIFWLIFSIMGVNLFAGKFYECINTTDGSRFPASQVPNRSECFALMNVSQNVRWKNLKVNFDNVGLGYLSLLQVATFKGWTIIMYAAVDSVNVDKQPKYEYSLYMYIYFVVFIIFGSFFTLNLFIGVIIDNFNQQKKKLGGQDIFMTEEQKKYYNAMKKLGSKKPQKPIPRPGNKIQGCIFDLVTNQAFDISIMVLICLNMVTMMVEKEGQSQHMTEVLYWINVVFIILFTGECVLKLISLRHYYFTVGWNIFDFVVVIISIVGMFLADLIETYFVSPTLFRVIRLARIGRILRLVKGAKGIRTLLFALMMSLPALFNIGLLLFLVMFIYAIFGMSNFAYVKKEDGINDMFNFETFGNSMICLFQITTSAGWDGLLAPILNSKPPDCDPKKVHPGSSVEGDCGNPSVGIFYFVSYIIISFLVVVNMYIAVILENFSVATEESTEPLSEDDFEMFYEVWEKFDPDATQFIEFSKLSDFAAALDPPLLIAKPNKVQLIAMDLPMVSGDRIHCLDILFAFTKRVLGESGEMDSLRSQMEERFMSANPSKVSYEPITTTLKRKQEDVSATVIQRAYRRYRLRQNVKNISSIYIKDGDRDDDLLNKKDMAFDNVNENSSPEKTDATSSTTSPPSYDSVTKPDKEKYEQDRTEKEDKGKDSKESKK
T1 sequence (Q07699 19-218 partner): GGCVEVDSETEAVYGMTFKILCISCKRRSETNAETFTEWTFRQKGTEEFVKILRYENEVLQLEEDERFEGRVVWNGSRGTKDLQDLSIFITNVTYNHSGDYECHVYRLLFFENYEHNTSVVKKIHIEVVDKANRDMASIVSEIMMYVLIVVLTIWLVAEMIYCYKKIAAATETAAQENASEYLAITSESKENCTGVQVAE
The target of data set [2] is T2, NaV1.5 (Homo sapiens (Human), UniProt Q14524). Kind of data set: NaV flux assay, inhibition of NaV1.5. Conditions: NaV flux data, included when EP data is not available.
T2 sequence (Q14524 whole entry): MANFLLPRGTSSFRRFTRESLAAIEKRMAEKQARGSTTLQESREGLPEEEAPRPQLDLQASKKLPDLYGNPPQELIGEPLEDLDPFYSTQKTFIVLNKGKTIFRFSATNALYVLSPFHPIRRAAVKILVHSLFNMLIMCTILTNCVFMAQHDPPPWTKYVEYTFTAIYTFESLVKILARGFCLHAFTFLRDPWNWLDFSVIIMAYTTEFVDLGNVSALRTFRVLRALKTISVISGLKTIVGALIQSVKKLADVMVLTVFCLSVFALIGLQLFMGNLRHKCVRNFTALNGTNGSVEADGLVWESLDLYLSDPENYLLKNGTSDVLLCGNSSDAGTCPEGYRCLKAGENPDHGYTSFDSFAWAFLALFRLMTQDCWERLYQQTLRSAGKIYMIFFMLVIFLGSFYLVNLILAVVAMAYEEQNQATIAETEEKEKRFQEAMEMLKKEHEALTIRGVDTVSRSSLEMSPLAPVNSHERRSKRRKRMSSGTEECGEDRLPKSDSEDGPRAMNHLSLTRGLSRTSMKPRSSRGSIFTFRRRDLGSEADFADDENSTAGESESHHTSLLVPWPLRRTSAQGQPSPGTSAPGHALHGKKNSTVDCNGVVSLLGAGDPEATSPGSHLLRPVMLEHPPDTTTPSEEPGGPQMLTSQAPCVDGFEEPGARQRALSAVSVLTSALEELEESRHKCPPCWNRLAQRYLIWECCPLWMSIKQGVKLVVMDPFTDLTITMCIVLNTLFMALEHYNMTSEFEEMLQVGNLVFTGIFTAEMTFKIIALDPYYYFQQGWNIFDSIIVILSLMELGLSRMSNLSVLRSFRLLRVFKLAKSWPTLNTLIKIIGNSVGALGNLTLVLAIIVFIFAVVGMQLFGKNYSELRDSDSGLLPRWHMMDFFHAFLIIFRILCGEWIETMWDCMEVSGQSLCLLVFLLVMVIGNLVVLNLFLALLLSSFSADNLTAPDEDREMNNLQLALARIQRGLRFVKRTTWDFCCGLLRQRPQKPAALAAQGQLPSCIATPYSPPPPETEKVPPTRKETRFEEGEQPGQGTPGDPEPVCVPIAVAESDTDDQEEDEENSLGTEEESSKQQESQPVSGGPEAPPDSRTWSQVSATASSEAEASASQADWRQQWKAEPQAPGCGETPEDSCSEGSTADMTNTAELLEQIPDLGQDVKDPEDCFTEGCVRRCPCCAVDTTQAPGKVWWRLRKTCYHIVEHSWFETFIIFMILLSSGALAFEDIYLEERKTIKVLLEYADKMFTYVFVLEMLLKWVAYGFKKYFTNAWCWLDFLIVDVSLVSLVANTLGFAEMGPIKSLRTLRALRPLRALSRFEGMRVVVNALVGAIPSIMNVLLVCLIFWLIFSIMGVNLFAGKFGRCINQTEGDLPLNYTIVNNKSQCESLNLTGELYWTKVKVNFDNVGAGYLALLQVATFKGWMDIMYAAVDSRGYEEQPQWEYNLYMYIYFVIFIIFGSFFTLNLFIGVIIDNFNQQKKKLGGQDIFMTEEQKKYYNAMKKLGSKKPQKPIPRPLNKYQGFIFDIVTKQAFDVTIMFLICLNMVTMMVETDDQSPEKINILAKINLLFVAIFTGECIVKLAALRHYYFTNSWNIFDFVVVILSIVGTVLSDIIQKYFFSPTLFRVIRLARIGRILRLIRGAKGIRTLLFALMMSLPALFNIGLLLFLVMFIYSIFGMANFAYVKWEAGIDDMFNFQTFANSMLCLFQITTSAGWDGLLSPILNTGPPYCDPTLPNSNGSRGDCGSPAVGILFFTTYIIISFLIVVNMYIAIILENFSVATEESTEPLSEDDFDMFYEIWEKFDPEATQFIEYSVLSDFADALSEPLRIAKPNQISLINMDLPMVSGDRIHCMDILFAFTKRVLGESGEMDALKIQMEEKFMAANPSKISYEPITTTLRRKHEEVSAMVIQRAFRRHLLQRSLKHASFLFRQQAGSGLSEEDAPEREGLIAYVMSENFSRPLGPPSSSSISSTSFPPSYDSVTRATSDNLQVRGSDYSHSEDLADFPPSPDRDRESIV
Data set [3] deals with T1, NaV1.7. The experiment in a line: Patch voltage clamp electrophysiology (EP), affinity for the inactivated state of Nav1.7. The following applies: HEK-293 cells expressing human Nav1.7 with β1 subunit. As for the experimental part:
(§1) The following patch voltage clamp electrophysiology studies were performed on representative compounds of the invention using human embryonic kidney cells (HEK), permanently transfected with an expression vector containing the full-length cDNA coding for the desired human sodium channel α-subunit, grown in culture media containing 10% FBS, 1% PSG, and 0.5 mg/mL G418 at 37° C. with 5% CO2. […] Nav1.7 and Nav1.5 cDNAs (NM_002977 and AC137587; SCN5A, respectively) were stably expressed in HEK-293 cells. The β1 subunit was coexpressed only in the Nav1.7 cell line.
(§2) Sodium currents were measured using the patch clamp technique in the whole-cell configuration using either a PatchXpress automated voltage clamp or manually using an Axopatch 200B (Axon Instruments) or Model 2400 (A-M systems) amplifier. […] The pipette was filled with a solution comprised of: 5 mM NaCl, 10 mM CsCl, 120 mM CsF, 0.1 mM CaCl2, 2 mM MgCl2, 10 mM HEPES, 10 mM EGTA; and adjusted to pH 7.2 with CsOH. The external solution had the following composition: 140 mM NaCl, 5 mM KCl, 2 mM CaCl2, 1 mM MgCl2, 10 mM HEPES; and adjusted to pH 7.4 with NaOH. In some studies, the external sodium was reduced by equimolar replacement with choline. Osmolarity in the CsF internal and NaCl external solutions was adjusted to 300 mOsm/kg and 310 mOsm/kg with glucose, respectively. All recordings were performed at ambient temperature in a bath chamber with a volume of 150 μL. Control sodium currents were measured in 0.5% DMSO. Controls and representative compounds of the invention were applied to the recording chamber through a 4-pinch or 8-pinch valve bath perfusion system manufactured by ALA Scientific Instruments.
Series resistance compensation was applied (60-80%). […] All statistics in this study are given as mean±SD.
(§3) The membrane potential was maintained at a voltage where inactivation of the channel is complete (which was −60 mV for both Nav1.7 and Nav1.5). The voltage is then stepped back to a very negative (Vhold=−150 mV) voltage for 20 ms and then a test pulse is applied to quantify the compound block. […] The percent decrease in sodium current following wash-on of compound was taken as the percent block of sodium channels.
(§4) The Example numbers provided in Table 1 and Table 2 correspond to the Examples herein: […]

The target in data set [4] is T2, NaV1.5. The experiment in a line: Patch voltage clamp electrophysiology (EP), affinity for the inactivated state of Nav1.5. The method, then: Patch voltage clamp electrophysiology allows for the direct measurement and quantification of block of voltage-gated sodium channels (Nav's), and allows the determination of the time- and voltage-dependence of block which has been interpreted as differential binding to the resting, open, and inactivated states of the sodium channel (Hille, B., Journal of General Physiology (1977), 69: 497-515).
as §1, §2
Currents were recorded at 40 kHz sampling frequency, filtered at […], and stored using a Digidata-1322A analogue/digital interface with the pClamp software (Axon Instruments). Series resistance compensation was applied (60-80%). […] All statistics in this study are given as mean±SD.
as §3, §4

Setting [5] is: HEK-293 cells expressing human Nav1.5, read-out: NaV1.5 IC50.
Where [6] appears, read: HEK-293 cells expressing human Nav1.5, read-out: NaV1.5 IC50(μM) (class).

In the case of `CN(c1ncns1)S(=O)(=O)c1cc(F)c(OC[C@@H]2CNCC[C@H]2c2ccc(Cl)cc2)cc1F` (relative stereo) [Example 79, 4-((trans-4-(4-chlorophenyl)piperidin-3-yl)methoxy)-2,5-difluoro-N-methyl-N-(1,2,4-thiadiazol-5-yl)benzenesulfonamide], the IC50 at NaV1.7 [1] was 7.88 µM; against NaV1.5 [2] it was above 10 µM.

For `Cc1ccc([C@@H]2CCNC[C@H]2COc2cc(F)c(S(=O)(=O)Nc3ncns3)cc2F)cc1` (relative stereo) [Example 100, 2,5-difluoro-N-(1,2,4-thiadiazol-5-yl)-4-((trans-4-(p-tolyl)piperidin-3-yl)methoxy)benzenesulfonamide], the IC50 at NaV1.7 [1] is 0.393 µM; on NaV1.5 [2], above 10 µM.

For `O=S(=O)(Nc1ncns1)c1cc(F)c(OC[C@@H]2CNCC[C@H]2c2ccc(Cl)c(Cl)c2)cc1F` (relative stereo) [Example 92, 4-((trans-4-(3,4-dichlorophenyl)piperidin-3-yl)methoxy)-2,5-difluoro-N-(1,2,4-thiadiazol-5-yl)benzenesulfonamide], the figures for the IC50 at NaV1.7 [3] (read-out: NaV1.7 (IC50 class)), on NaV1.7 [3] (read-out: NaV1.7 IC50) and against NaV1.5 [2] were below 0.1 µM, 0.0008 µM and above 10 µM, respectively.

Regarding `O=S(=O)(Nc1ncns1)c1cc(F)c(OC[C@@H]2C[C@H](O)CCC2c2ccc(Cl)cc2)cc1F` (stereo partly drawn) [Example 110, 4-(((trans-5S)-2-(4-chlorophenyl)-5-hydroxycyclohexyl)methoxy)-2,5-difluoro-N-(1,2,4-thiadiazol-5-yl)benzenesulfonamide], the IC50 is 0.426 µM against NaV1.7 [1] and above 10 µM on NaV1.5 [2].

For the compound `O=S(=O)(Nc1ncns1)c1cc(F)c(OC[C@@H]2CNCC[C@H]2c2ccc(F)c(C(F)(F)F)c2)cc1F` (relative stereo) [Example 107, 2,5-difluoro-4-((trans-4-(4-fluoro-3-(trifluoromethyl)phenyl)piperidin-3-yl)methoxy)-N-(1,2,4-thiadiazol-5-yl)benzenesulfonamide], the IC50 against NaV1.7 [1] is 0.038 µM; at NaV1.5 [2], above 10 µM.

In the case of `COc1ccc([C@@H]2CCNC[C@H]2COc2cc(F)c(S(=O)(=O)Nc3ncns3)cc2F)cc1` (relative stereo) [Example 94, 2,5-difluoro-4-((trans-4-(4-methoxyphenyl)piperidin-3-yl)methoxy)-N-(1,2,4-thiadiazol-5-yl)benzenesulfonamide], the results for the IC50 against NaV1.7 [1] and at NaV1.5 [2] were 0.132 µM and above 10 µM, respectively.

Consider `O=C1CC[C@@H](c2ccc(Cl)cc2)[C@H](COc2cc(F)c(S(=O)(=O)Nc3ncns3)cc2F)C1` (relative stereo) [Example 109, 4-((trans-2-(4-chlorophenyl)-5-oxocyclohexyl)methoxy)-2,5-difluoro-N-(1,2,4-thiadiazol-5-yl)benzenesulfonamide], for which the IC50 on NaV1.7 [1] was 0.244 µM; against NaV1.5 [2], above 10 µM.

On NaV1.5 [2], `O=S(=O)(Nc1ncns1)c1cc(F)c(OC[C@@H]2CNCC[C@H]2c2ccc(Cl)c(F)c2)cc1F` (relative stereo) [Example 97, 4-((trans-4-(4-chloro-3-fluorophenyl)piperidin-3-yl)methoxy)-2,5-difluoro-N-(1,2,4-thiadiazol-5-yl)benzenesulfonamide] displayed a half-maximal inhibitory concentration (IC50) above 10 µM.

As to `CC(C)CNS(=O)(=O)c1cc(F)c(OC[C@@H]2CNCC[C@H]2c2ccc(Cl)cc2)cc1F` (relative stereo) [Example 96, 4-((trans-4-(4-chlorophenyl)piperidin-3-yl)methoxy)-2,5-difluoro-N-isobutylbenzenesulfonamide], the concentration for half-maximal inhibition (IC50) against NaV1.7 [1] came to 4.9 µM; at NaV1.5 [2], 7.56 µM.

On to `CN1CC[C@H](c2ccc(Cl)cc2)[C@@H](COc2cc(F)c(S(=O)(=O)Nc3ncns3)cc2F)C1` [Example 85, 4-(((3R,4S)-4-(4-chlorophenyl)-1-methylpiperidin-3-yl)methoxy)-2,5-difluoro-N-(1,2,4-thiadiazol-5-yl)benzenesulfonamide], for which the IC50 on NaV1.7 [3] (read-out: NaV1.7 (IC50 class)) is below 0.1 µM; on NaV1.7 [3] (read-out: NaV1.7 IC50) it was 0.0048 µM; at NaV1.5 [4] (setting [5]), above 10 µM; at NaV1.5 [4] (setting [6]) it was above 10 µM.

Turning to `O=S(=O)(Nc1ncns1)c1cc(F)c(OC[C@@H]2CNCC[C@H]2c2ccc(F)c(C(F)F)c2)cc1F` (relative stereo) [Example 108, 4-((trans-4-(3-(difluoromethyl)-4-fluorophenyl)piperidin-3-yl)methoxy)-2,5-difluoro-N-(1,2,4-thiadiazol-5-yl)benzenesulfonamide], the figures for the IC50 against NaV1.7 [1] and on NaV1.5 [2] were 0.071 µM and above 10 µM, respectively.

Regarding `O=S(=O)(c1cc(F)c(OC[C@@H]2CNCC[C@H]2c2ccc(F)cc2)cc1F)n1cccn1` (relative stereo) [Example 98, trans-3-((4-((1H-pyrazol-1-yl)sulfonyl)-2,5-difluorophenoxy)methyl)-4-(4-fluorophenyl)piperidine], the IC50 on NaV1.7 [1] is 7.22 µM; against NaV1.5 [2] it was 7.53 µM.

As for `O=S(=O)(Nc1ncns1)c1cc(F)c(OC[C@@H]2CN(CC(F)(F)F)CC[C@H]2c2ccc(Cl)cc2)cc1F` (relative stereo) [Example 88, 4-((trans-4-(4-chlorophenyl)-1-(2,2,2-trifluoroethyl)piperidin-3-yl)methoxy)-2,5-difluoro-N-(1,2,4-thiadiazol-5-yl)benzenesulfonamide], the IC50 on NaV1.7 [3] (read-out: NaV1.7 (IC50 class)) is 0.1 to 1 µM; at NaV1.7 [3] (read-out: NaV1.7 IC50) it was 0.13 µM; on NaV1.5 [4] (setting [5]), above 10 µM; on NaV1.5 [4] (setting [6]) it was above 10 µM.

Take `O=S(=O)(Nc1ncns1)c1cc(F)c(OCC2CNCCN2c2ccc(Cl)cc2)cc1F` (stereo not drawn) [Example 112, 4-((1-(4-chlorophenyl)piperazin-2-yl)methoxy)-2,5-difluoro-N-(1,2,4-thiadiazol-5-yl)benzenesulfonamide]: the IC50 on NaV1.7 [1] was 0.326 µM; against NaV1.5 [2], above 10 µM.

Turning to `O=S(=O)(Nc1ncns1)c1cc(F)c(OC[C@@H]2CNCC[C@H]2c2cc(F)c(F)cc2F)cc1F` (relative stereo) [Example 106, 2,5-difluoro-N-(1,2,4-thiadiazol-5-yl)-4-((trans-4-(2,4,5-trifluorophenyl)piperidin-3-yl)methoxy)benzenesulfonamide], the results for the IC50 against NaV1.7 [1] and against NaV1.5 [2] were 0.181 µM and above 10 µM, respectively.

Consider `O=S(=O)(Nc1ncns1)c1cc(F)c(OC[C@@H]2C[C@@H](O)CCC2c2ccc(Cl)cc2)cc1F` (stereo partly drawn) [Example 111, 4-(((trans-5R)-2-(4-chlorophenyl)-5-hydroxycyclohexyl)methoxy)-2,5-difluoro-N-(1,2,4-thiadiazol-5-yl)benzenesulfonamide], for which the IC50 against NaV1.7 [1] is 2.04 µM; against NaV1.5 [2] it was above 10 µM.
